Experimental data: patent US12447167B2, “GM-CSF-producing t-cell control agent and Th1/Th2 immune balance regulator” (National Center of Neurology and Psychiatry, priority 2014, dated 2025)

Experiments:
[1] = Disposition after single oral dose, cynomolgus monkey; assay type: in vivo; details: male cynomolgus monkey, 10 mg/kg single oral, 14C-labeled, fasting
Method: After a single dose of compound 31 labeled with ^14C was orally administered at a predetermined dose to each of a male mouse, a male rat, and a male cynomolgus monkey under fasting conditions, the concentration in blood was measured after a lapse of a given time, and parameters such as maximum plasma concentration Cmax, time Tmax to reach the maximum plasma concentration, half-life t1/2, area under curve AUC0-∞, mean retention time MRT0-∞, and bioavailability BA were calculated. The concentration in blood in humans (normal subjects) was measured and each of the parameters was calculated, in the similar manner as above except that ^14C-unlabeled compound 31 was used.
In the tables, “N.D.” means not detected.

IFN-γ = IFN-γ expression level of sorted CD4-positive memory T-cells of MS patients (ELISA of culture supernatant); assay type: in vivo, human; details: 0.3 mg single oral
Method: (§1) A single dose of compound 31, which is a synthetic glycolipid of the present invention, described in the first aspect was orally administered to each of 2 MS patients (subjects) shown in Table 2 above after obtainment of informed consent. The dose was set to 0.3 mg per person.
(§2) Subsequently, T-cell subfractions were prepared from the peripheral blood of each subject by using the density gradient centrifugation method. First, a total of 20 mL of blood was collected from the vein of each subject 24 hours (1st day), 48 hours (2nd day), 72 hours (3rd day), 168 hours (7th day), and 192 hours (8th day) after the administration of compound 31 by using two 10-mL heparin sodium-containing vacuum blood collection tubes. For a control, 20 mL of blood was similarly collected from the vein of each subject one day before the administration of compound 31.
(§3) The collected PBMCs were stained with antibodies by the following method. First, 10 μL of a solution consisting of 20 μL of MACS buffer, 0.25 μL of APC-Cy7-anti-CD3 antibody (BioLegend, Inc.), 1 μL of PB-anti-CD4 antibody (BioLegend, Inc.), 1 μL of PerCP-Cy5.5-anti-CD45RA antibody (BioLegend, Inc.), and 1 μL of PC7-anti-CD56 antibody (Beckman Coulter, Inc.) was added to 6×10^6 cells of PBMCs, thoroughly mixed by vortexing, and then left on ice for 20 minutes. CD56 is a detection marker of cells having NK activity, and CD3^−CD56^− cells indicate being antigen-presenting cells (APCs). […]
(§4) mCD4T and APC obtained by the sorting were each suspended in a medium consisting of 500 mL of RPMI1640 (GIBCO/Thermo Fisher Scientific Inc.), 5 mL of glutamine (200 mM, Wako Pure Chemical Industries, Ltd.), 5 mL of Pen/strep (10,000 U/mL, GIBCO/Thermo Fisher Scientific Inc.), 0.5 mL of 2-mercaptoethanol (GIBCO/Thermo Fisher Scientific Inc.), and 50 mL of 10% (v/v) Cellect FETAL BOVINE SERUM (MP Biomedicals, LLC), and the number of cells was measured. […]
(§5) After the culture, a culture supernatant was collected, and IFN-γ, IL-4, IL-17, and GM-CSF were measured by the ELISA method. […]

[2] = Disposition after single oral dose, MS patients; assay type: in vivo, human; details: 0.3 mg/body single oral
Method: In the similar manner as in Example 5, a single dose of compound 31 labeled with ^14C was orally administered to each of 2 MS patients (subjects) after obtainment of informed consent, and the concentration of the compound in blood was measured and each parameter was calculated by collecting blood after a lapse of a given time.

GM-CSF = GM-CSF expression level of sorted CD4-positive memory T-cells of MS patients (ELISA of culture supernatant); assay type: in vivo, human; details: 0.3 mg single oral
Method: as §1, §2, §3, §4, §5

- AUC(0-inf) ([1]; blood): 2380 ng·h/mL
- AUC(0-t) ([1]; blood): 2260 ng·h/mL
- half-life ([1]; blood): 39.2 h
- MRT inf ([1]; blood, read-out: MRT0-∞): 60.9 h
- BA [1]: 0.11%
- Rate of absorption [1]: 0.41%
- concentration in blood ([1]; 4 h): 1.92
- concentration in blood ([1]; 8 h): 9.59
- concentration in blood ([1]; 12 h): 33.4
- concentration in blood ([1]; 24 h): 35.2
- concentration in blood ([1]; 48 h): 26.5
- concentration in blood ([1]; 72 h): 13
- concentration in blood ([1]; 96 h): 7.1
- concentration in blood ([1]; 120 h): 4.21
- concentration in blood ([1]; 144 h): 2.83
- concentration in blood ([1]; 168 h): 2.05
- Cmax ([1]; plasma): 39.4 ng/mL
- Tmax ([1]; plasma): 28 h
- concentration in blood in MS patients as compared with normal persons [2]: low concentration in blood
- AUC(0-t) ([2]; human, blood): 1.41 ng·h/mL
- Cmax ([2]; human, blood): 0.122 ng/mL
- Tmax ([2]; human, blood): 18 h
Structure (SMILES): CCCCCCCCCCCCCCCCCCCCCCCC(=O)NC(COC1OC(CO)C(O)C(O)C1O)[C@H](O)C(O)CCCCC (stereo in doubt) [compound 31, (2S,3S,4R)-1-O-(α-D-galactosyl)-2-(N-tetracosanoylamino)-1,3,4-nonanetriol]
- IFNγ expression level (IFN-γ; day 8, MBP stimulation (culture condition B), day −1 value 28528.18): 7006.30
- IFNγ expression level (IFN-γ; day 8, OVA stimulation (culture condition A), day −1 value 23489.34): 5032.43
- change of expression level of IFN-γ (IFN-γ; day8 vs day-1): decreased
- GM-CSF expression level (GM-CSF; day 8, MBP stimulation, day −1 value 153.15): 50.81
- GM-CSF expression level (GM-CSF; day 8, OVA stimulation, day −1 value 224.87): 168.45
- change of expression level of GM-CSF (GM-CSF; day8 vs day-1): decreased
